This is an account of results in ChEMBL document CHEMBL1201862, “PubChem BioAssay data set” (2004).

Active and inactive are the calls of the source. Bounds are passed on as bounds.

The test system of one test is HeLa. Put plainly: ATP-based viability loss in HeLa cells – cell-based, CellTiter-Glo luminescence, cherry-pick samples, cytotoxicity control for MITF activator project, dose response (AID 540259). The test is classed as functional. As to conditions: Homo sapiens. Background: ATP-based viability assays read luminescence as a measure of living cells.
In test [1] the test system is HEK293. The test can be described thus: NOD2 signaling inhibitors in MDP-stimulated cells, cell-based, uHTS, luminescence (AID 2001). The test is classed as functional. As to conditions: Homo sapiens.
Test [2] in a line: blockers of HIV-1 envelope-mediated cell-cell fusion – cherry-pick, dose response (AID 652057). The test is classed as functional, cell-based.
Another test concerns the target Protein Rev (Human immunodeficiency virus type 1 group M subtype B (isolate WMJ22)(HIV-1), UniProt P05866). The test can be described thus: inhibitors of Rev protein–RRE RNA complex – biochemical, protein-RNA interaction, dose response (AID 842). On the set-up: species or system Human immunodeficiency virus 1.
For test [3], the target named is T1, Serine/threonine-protein phosphatase (Candida dubliniensis (strain CD36 / CBS 7987 / NCPF 3949 / NRRLY-17841) (Yeast), UniProt B9W6M3).
T1 sequence (B9W6M3 whole entry): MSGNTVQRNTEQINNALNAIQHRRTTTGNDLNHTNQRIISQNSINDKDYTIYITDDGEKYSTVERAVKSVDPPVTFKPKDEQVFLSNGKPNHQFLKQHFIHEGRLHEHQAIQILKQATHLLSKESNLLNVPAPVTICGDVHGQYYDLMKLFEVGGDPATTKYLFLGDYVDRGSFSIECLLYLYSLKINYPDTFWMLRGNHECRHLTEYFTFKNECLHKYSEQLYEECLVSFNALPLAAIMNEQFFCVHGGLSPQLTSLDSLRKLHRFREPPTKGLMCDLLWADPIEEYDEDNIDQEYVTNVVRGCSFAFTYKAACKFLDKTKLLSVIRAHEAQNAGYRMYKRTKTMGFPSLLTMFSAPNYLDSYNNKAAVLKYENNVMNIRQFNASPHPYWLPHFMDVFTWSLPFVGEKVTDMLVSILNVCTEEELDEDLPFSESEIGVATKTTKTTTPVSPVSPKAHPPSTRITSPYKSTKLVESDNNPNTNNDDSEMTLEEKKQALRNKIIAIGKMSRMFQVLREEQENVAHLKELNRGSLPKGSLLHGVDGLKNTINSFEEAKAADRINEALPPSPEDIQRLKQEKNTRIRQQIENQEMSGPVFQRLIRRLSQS
The test can be described thus: blockers of CaCl2-induced CDRE-lacZ signaling – S. cerevisiae, luminescence, secondary, dose response (AID 2388).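 Note: yeast reporter cells carrying a calcineurin-responsive lacZ construct stimulated with calcium chloride; luminescent beta-galactosidase reporter signal in whole cells rather than isolated phosphatase activity; potency for inhibition where a drop in reporter signal means calcineurin blockade.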 The test is classed as functional, cell-based.

The test system of test [4] is HEK293. Put plainly: cells. The test is classed as functional, cell-based. Conditions: Homo sapiens.
Test [5] has as its system BJ. The test can be described thus: cells. The test is classed as functional, cell-based. Conditions: Homo sapiens.
Test [6] has as its system BJ. Put plainly: BJ-TERT-LT-ST fibroblast viability loss – cell-based, RAS-independent, luminescence, dose response (AID 1935).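 Note: BJ fibroblasts immortalized with TERT plus LT and ST oncogenes.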 It is filed as functional. Conditions: Homo sapiens.
Test [7] is described as follows: viability of HCT116 lacking mutant beta-catenin – cell-based, human colon tumor, dose response (AID 1045).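 Note: HCT116 colon tumor cells with beta catenin knocked out; cells exposed to compound for 60 hours.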 The test is classed as functional.
The subject of the next test is INS1. Put plainly: INS-1E survival protection against cytokine death – cell-based, luminescence, retest, dose response (AID 449756).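 Note: cell death triggered by IL-1 beta plus TNF-alpha plus IFN-gamma mixture; protective hits raise ATP signal compared with cytokine alone wells.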 The test is classed as functional. Conditions: Rattus norvegicus.
The subject of test [8] is BJ. The test can be described thus: growth inhibition of engineered Ras-driven BJ cells – cell-based, alamar blue fluorescence, cherrypicked samples, dose response (AID 2631).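 Note: confirmatory dose-response assay in RAS-dependent BJ fibroblasts engineered with TERT, LT and ST, with cytotoxicity read by fluorescence.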 The test is classed as functional. As to conditions: Homo sapiens. (In general: Alamar Blue is a resazurin reagent that responds to reducing activity.)
The nature of test [9]: NIH-3T3 fibroblast cytotoxicity, dose response, cytotoxicity control, cell-based, fluorescence, Alamar Blue, secondary assay (AID 2327).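 Note: NIH-3T3 mouse fibroblasts cultured with fluconazole at 8 µg/mL.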 It is filed as functional.
The nature of test [10]: viability loss in CEM21 cells – cell-based, CellTiter-Glo luminescence, cherry-picked, cytotoxicity control for viral fusion inhibitor project, dose response (AID 652042).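 Note: potency for signal decrease meaning cytotoxicity.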 The test is classed as functional.
Test [11] has as its target ATP-dependent molecular chaperone HSP82 (Candida albicans (strain WO-1) (Yeast), UniProt C4YTQ8). Put plainly: steroid-induced GRE reporter decrease in yeast – S. cerevisiae, luminescence, Hsp90 inhibitor project, dose response (AID 2400).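 Note: beta-galactosidase luminescence from glucocorticoid response element reporter as proxy for Hsp90 function; inhibitor potency where signal loss means Hsp90 inhibition.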 It is filed as functional, cell-based.
Test [12] has as its system HEK293. Put plainly: cells. The test is classed as functional, cell-based. Conditions: Homo sapiens. This is another data set of the same source.
Test [13] has as its system HEK293. Put plainly: inhibition of NOD1-driven NF-kB reporter – cell-based, luminescence, uHTS, primary screen (AID 1578). Conditions: Homo sapiens. It is filed as functional.
The nature of test [14]: THP-1 cell cytotoxicity, dose response, cytotoxicity control for non-replicating M. tuberculosis project (AID 489025). The test is classed as functional.
The nature of test [15]: HIV-1 AD8 envelope cell-cell fusion blockers – cherry-pick, dose response (AID 652062).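 Note: luciferase signal from cell-cell fusion driven by HIV-1 clade B AD8 Env; potency is for inhibitors of fusion seen as a drop in luminescence.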 The test is classed as functional, cell-based.
Test [16] in a line: alpha-synuclein stem-loop luciferase translation blockers – H4 neuroglioma cells, luminescence, confirmation (AID 1988). It is filed as functional, cell-based.
Test [17] is described as follows: luciferase reporter signal suppression in cells – H4 neuroglioma cells, luminescence, dose response (AID 1990). The test is classed as functional, cell-based. (In general: A reporter such as luciferase makes a cellular process visible.)
The subject of test [18] is BJ. Put plainly: BJ-TERT fibroblast viability loss – cell-based, RAS-independent, luminescence, dose response (AID 1933). The test is classed as functional. Conditions: Homo sapiens.
Test [19] can be described thus: fluconazole-exposed Candida albicans growth modulators – fluorescence, retest, confirmation (AID 2467). The test is classed as functional, cell-based.
Test [20] in a line: DRD fibroblast viability loss – cell-based, non-viral oncogenic, luminescence, dose response (AID 1934). The test is classed as functional. Conditions: Homo sapiens.
Test [21] is described as follows: HEK-293T viability loss, compound-treated – cell-based, uHTS hits, cytotoxicity control for B/T-cell NF-kB inhibitor project, dose response (AID 489019).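 Note: IC50 reflects cytotoxicity as loss of cell viability.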 It is filed as functional.
A further test relates to Jurkat. Put plainly: blockers of NF-kB activation in T cells – Jurkat, luciferase reporter, luminescence, B- and T-cell, dose response (AID 489004).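 Note: NF-kB luciferase reporter Jurkat cells stimulated with PMA plus ionomycin.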 The test is classed as functional, cell-based. Conditions: Homo sapiens.
Test [22] relates to HEK293. Put plainly: cells. The test is classed as functional, cell-based. Conditions: Homo sapiens. This is another data set of the same source.
The nature of test [23]: Luminescence Cell-Based Dose Response HTS to Identify Inhibitors of 5'UTR Stem-Loop Driven Prion Protein mRNA Translation in H4 Neuroglioblastoma Cells. [Related pubchem assays: 1827 (Project Summary), 1813 (Primary HTS)]. The test is classed as functional.
Test [24] deals with Nucleotide-binding oligomerization domain-containing protein 2 (Homo sapiens, UniProt Q9HC29). The test can be described thus: inhibition of NOD2-driven NF-kB reporter – cell-based, luminescence, uHTS, HEK293 (AID 1566). The test is classed as functional.
Nucleotide-binding oligomerization domain-containing protein 2, sequence (Q9HC29 whole entry, the tested form may be a part): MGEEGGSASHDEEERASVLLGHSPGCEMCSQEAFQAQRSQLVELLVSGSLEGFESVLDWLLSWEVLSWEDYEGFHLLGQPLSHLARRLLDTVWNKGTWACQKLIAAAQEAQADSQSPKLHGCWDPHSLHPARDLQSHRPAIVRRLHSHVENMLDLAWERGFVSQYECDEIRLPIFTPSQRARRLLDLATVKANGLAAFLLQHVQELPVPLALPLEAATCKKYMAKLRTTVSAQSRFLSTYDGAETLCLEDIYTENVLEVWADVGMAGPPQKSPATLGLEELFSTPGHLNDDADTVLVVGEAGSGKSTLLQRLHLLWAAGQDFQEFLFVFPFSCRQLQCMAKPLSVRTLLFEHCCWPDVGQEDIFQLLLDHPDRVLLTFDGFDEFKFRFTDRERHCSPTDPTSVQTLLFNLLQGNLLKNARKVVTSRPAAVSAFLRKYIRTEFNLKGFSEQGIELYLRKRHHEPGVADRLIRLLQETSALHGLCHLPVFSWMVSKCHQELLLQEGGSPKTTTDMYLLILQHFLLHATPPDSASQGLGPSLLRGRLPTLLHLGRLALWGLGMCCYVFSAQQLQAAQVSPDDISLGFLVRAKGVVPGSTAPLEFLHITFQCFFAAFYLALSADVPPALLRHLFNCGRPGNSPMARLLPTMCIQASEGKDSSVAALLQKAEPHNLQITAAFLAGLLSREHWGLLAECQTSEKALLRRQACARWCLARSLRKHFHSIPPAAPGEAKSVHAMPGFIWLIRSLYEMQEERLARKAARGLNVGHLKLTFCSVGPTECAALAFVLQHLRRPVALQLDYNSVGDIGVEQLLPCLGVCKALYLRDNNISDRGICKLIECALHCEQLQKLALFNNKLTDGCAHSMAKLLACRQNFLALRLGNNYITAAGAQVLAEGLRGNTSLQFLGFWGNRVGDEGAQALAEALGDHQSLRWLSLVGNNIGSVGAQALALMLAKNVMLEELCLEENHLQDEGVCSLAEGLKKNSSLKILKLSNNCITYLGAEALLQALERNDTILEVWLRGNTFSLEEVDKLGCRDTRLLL
A short description of test [25]: viability of PTEN-deleted HCT116 cells – cell-based, HCT116 PTEN knockout, dose response (AID 1047).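 Note: HCT116 colon tumor cells with PTEN knocked out; cells exposed to compound for 60 hours before readout; potency for loss of cell viability measured by luminescence.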 It is filed as functional.
Test [26] in a line: blockers of HIV-1 ZM109 envelope-driven cell-cell fusion – HeLa effector, CEM target cells, luciferase, cherry-pick, dose response (AID 652058).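 Note: luciferase signal from HIV-1 Env mediated cell-cell fusion of effector and target cells.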 The test is classed as functional, cell-based.
Test [27] can be described thus: Vero E6 cell cytotoxicity, dose response, cytotoxicity control for non-replicating M. tuberculosis project, secondary assay (AID 492998). It is filed as functional, VeroE6. Conditions: Vero C1008.
Another test in a line: cells. It is filed as functional.
A short description of test [28]: HepG2 cell cytotoxicity, dose response, cytotoxicity control for non-replicating M. tuberculosis project (AID 489018). It is filed as functional. As to conditions: Mycobacterium tuberculosis.
In another test the test system is A-375. Put plainly: MITF: Counter assay: A375 proliferation Measured in Cell-Based System Using Plate Reader - 2084-03_Inhibitor_Dose_DryPowder_Activity. [Related pubchem assays (depositor defined):AID488944]. It is filed as functional. As to conditions: Homo sapiens.
The target in test [29] is T2, Microphthalmia-associated transcription factor (Homo sapiens, UniProt O75030).
T2 sequence (O75030 whole entry): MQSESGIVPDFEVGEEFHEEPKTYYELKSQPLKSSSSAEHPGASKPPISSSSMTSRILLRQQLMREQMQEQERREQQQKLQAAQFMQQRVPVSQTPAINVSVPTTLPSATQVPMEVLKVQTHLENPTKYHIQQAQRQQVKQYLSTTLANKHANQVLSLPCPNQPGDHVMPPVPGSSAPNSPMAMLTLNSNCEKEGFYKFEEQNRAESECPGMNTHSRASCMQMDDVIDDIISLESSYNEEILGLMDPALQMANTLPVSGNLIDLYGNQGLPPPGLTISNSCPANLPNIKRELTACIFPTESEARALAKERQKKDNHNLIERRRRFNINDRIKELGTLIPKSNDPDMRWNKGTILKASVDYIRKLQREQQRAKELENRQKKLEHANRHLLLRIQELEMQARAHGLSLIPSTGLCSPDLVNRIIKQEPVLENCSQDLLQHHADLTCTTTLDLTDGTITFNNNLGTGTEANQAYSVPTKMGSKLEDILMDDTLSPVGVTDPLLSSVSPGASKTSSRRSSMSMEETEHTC
Put plainly: reducers of TRPM1 reporter luminescence, concentration series – cell-based, SK-MEL-5, cherry-picked, set 3, MITF inhibitor project, dose response (AID 493073).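 Note: SK-MEL-5 melanoma cells with luciferase driven by the MITF target TRPM1 promoter.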 It is filed as functional.

The target of test [30] is Beta-2 adrenergic receptor (Homo sapiens, UniProt P07550). The test can be described thus: ADRB2 activation measured by internalization – cell-based, FAP fluorogen, flow cytometry, cherry pick 1, dose response (AID 588763). The test is classed as functional.
Beta-2 adrenergic receptor, sequence (P07550 whole entry): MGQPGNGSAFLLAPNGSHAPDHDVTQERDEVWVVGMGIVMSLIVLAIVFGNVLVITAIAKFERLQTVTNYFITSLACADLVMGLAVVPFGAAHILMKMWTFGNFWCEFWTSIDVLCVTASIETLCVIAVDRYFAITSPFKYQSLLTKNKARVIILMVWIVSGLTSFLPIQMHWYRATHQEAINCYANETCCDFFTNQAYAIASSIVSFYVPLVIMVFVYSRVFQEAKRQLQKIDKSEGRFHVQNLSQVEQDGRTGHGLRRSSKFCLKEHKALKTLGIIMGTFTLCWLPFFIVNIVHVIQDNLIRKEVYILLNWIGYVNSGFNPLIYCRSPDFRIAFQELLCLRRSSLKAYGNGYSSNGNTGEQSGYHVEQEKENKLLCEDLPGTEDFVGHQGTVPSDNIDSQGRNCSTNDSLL
Test [31] in a line: Luminescence Cell-Based Dose Retest to Confirm Inhibitors of Cancer Stem Cells. [Related pubchem assays (depositor defined):AID2717, AID2721]. It is filed as functional. Conditions: Homo sapiens.
The subject of the next test is Escherichia coli. The test can be described thus: microbe, parasite or virus in culture.

Protein Rev, sequence (P05866 whole entry): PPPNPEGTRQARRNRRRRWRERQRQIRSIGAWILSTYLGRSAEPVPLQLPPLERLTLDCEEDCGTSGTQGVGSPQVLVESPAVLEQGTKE
ATP-dependent molecular chaperone HSP82, sequence (C4YTQ8 whole entry): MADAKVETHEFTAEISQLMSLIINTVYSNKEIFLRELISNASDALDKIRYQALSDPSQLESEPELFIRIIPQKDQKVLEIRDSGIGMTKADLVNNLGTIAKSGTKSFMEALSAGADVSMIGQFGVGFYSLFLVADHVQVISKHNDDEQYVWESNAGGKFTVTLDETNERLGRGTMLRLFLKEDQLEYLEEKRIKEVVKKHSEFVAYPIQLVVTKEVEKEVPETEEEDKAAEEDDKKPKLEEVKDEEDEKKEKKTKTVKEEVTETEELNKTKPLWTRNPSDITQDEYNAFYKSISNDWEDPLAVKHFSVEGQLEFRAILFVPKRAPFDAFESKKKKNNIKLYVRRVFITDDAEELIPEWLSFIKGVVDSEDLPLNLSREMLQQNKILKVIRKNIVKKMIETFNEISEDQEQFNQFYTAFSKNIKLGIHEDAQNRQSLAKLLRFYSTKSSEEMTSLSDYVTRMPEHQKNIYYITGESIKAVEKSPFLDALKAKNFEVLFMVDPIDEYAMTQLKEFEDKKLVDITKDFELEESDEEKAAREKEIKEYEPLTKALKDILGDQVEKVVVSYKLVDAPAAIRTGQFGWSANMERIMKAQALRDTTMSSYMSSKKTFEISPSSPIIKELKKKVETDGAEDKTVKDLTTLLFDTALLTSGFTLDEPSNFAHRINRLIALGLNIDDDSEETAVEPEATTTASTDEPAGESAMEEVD

On to `Brc1csc(/C=N/Nc2nc3ccccc3s2)c1`, for which the AC50 with HeLa is 46 µM (active).
`COc1ccc(/C=C/c2cc(-c3ccc(C)cc3)o[n+]2C)cc1`: the IC50 is 8.34 µM (active) in the test on HEK293 [1]; > 79.4 µM (not active) against Protein Rev; 5.25 µM (active) in the test on HEK293 [4]; > 20 µM (inactive) with HEK293 [12]; > 80 µM (inactive) in test [21]; 3.13 µM (active) in the test on Jurkat. In addition, the IC50 in the test on HEK293 [22] is 13.2 µM (active); in the test “cells”, 5.99 µM (active). Besides, the AC50 was 6.83 µM (active) in [2]; 0.76 µM (active) in the test on INS1; 4.21 µM (active) in test [10]; 7.88 µM (active) in test [15]; 3.33 µM (active) in [26]. Further, the EC50 in [3] is > 180 µM (inactive); with BJ [5], 1.87 µM (inconclusive); with BJ [6], 4.41 µM (inconclusive); in test [7], 0.733 µM (active); in the test with BJ [8] it was 3.43 µM (active); in test [9], > 160 µM (inactive). In addition, the EC50 in test [11] is > 160 µM (inactive); with HEK293 [13], 9.15 µM (active); in [16], 2.27 µM (active); in [17], 0.894 µM (active); in the test on BJ [18], 0.601 µM (inconclusive); in test [19] it was 0.576 µM (active). Besides, the EC50 in test [20] is 5.02 µM (active); in test [23], 12.2 µM (active); in test [24], 8.29 µM (active); in test [25], 0.778 µM (active). The CC50 in test [14] is 2.38 µM (active); in test [27] it was > 20 µM (active); in test [28], 9.8 µM (active).
Take `COc1ccccc1CNCC(O)Cn1c2ccccc2c2ccccc21` (configuration not stated): the AC50 is 19.2 µM (active) in the test with A-375, 11.2 µM (active) with INS1 and 18.7 µM (active) in [29]. For the same compound, the EC50 was 8.31 µM (active) in test [7], 8.09 µM (active) in test [25] and 12.2 µM (inactive) in test [30].
Turning to `CC(C)c1ccc(NC(=O)c2snc3ccc(Cl)cc23)cc1`, the AC50 is 3.02 µM (active) in test [31], 52.8 µM (active) in the test with HeLa and 23.1 µM (active) with Escherichia coli.

By AC50 is commonly meant the concentration giving half of the maximal activity seen. What is called IC50 is the concentration that inhibits the measured activity by half. As usually defined, the EC50 is the midpoint of the concentration-response curve. A word on the CC50: it is the concentration at which the toxic effect on the cells reaches its halfway point.
